Patent publication US8415373B2, “Isoquinolinone derivatives as NK3 antagonists” (H. Lundbeck A/S, priority 2008, dated 2013)

How the values were obtained:
human NK3 receptor = target: T1, human NK3 receptor (Homo sapiens, UniProt P29371); test: NK3 receptor binding assay (SPA-based competition binding, 125I-NKB); conditions: read-out: Affinity (Ki/nM)
T1 construct: expressed in transfected cells
T1 sequence (P29371 1-465): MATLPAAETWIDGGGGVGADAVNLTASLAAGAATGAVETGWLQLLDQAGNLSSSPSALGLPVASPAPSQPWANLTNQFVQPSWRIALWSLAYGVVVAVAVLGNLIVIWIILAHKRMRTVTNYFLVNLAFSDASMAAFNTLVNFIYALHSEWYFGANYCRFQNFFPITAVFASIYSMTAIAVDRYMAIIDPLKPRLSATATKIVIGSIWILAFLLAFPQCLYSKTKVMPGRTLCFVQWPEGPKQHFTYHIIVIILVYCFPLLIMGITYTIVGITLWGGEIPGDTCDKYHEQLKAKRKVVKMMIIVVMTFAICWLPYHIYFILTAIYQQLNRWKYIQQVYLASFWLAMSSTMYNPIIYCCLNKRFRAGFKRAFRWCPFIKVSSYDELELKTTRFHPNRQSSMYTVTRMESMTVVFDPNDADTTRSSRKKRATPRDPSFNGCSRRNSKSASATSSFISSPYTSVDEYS
Method: Membranepreparation: BHK cells stably expressing the human NK3 receptor were seeded in harvesting plates in Dulbeccos MEM containing GlutaMax (862 mg/l), 1 mM sodium pyruvate, 10% fetal calf serum, 1% Pen/Strep, 1 mg/ml G418 and were grown at 34° C. in a humidified atmosphere containing 10% CO2. To increase receptor expression, 10 μM trichotatin A was added to the media 24 hours before harvest of the cells at a confluency of app 90%. Prior to the harvesting, the cells were washed twice with PBS without Mg^2+ og Ca^2+ and subsequently scrapped of in 10 ml PBS pr harvesting plate. The cell suspension were centrifuged at 1500×G in three minutes before resuspension in 15 mM Tris-HCl pH 7.5 buffer containing 2 mM MgCl2; 0.3 mM EDTA and 1 mM EGTA (buffer A). The cell suspension was homogenised and subsequently centrifuged at 40000×G in 30 minutes. The membrane-pellet was resuspended in buffer A containing 250 mM sucrose, aliquoted and stored at −80° C.
Affinity assay description: The assay was performed as a SPA-based competition-binding assay in a 50 mM Tris pH 7.4 assay buffer containing 120 mM NaCl, 3 mM MnCl2, 40 μg/ml bacitracin, 2 μg/ml Chymostatin, 1 μg/ml Phosphoramidon and 4 μg/ml Leupeptin. […] The assay plate was subsequently under agitation incubated for 90 min at RT. The plate was centrifugated 10 minutes at 500×G and counted in a topcounter 5 minutes pr well.

schizophrenics = conditions: cited from earlier work
[1] = Nature reviews, 4, 967-975, 2005; cited from earlier work
[2] = Nature reviews, 4, 967-975, 2005; cited from earlier work; remark: listed apart in the source

Row | Ki (human NK3 receptor) | SMILES | also measured
1 | 95 nM | Cc1nc(Cn2c(C)c(C(=O)N[C@H](c3cccc(F)c3)C3CCC3)c3cccc(F)c3c2=O)cs1 [Example 2ac, 8-Fluoro-3-methyl-2-(2-methyl-thiazol-4-ylmethyl)-1-oxo-1,2-dihydro-isoquinoline-4-carboxylic acid [(S)-cyclobutyl-(3-fluoro-phenyl)-methyl]-amide] | 
2 | 200 nM | CC[C@H](NC(=O)c1c(C)n(Nc2ccccc2)c(=O)c2ccccc12)c1ccccc1 [Example 1a, 3-Methyl-1-oxo-2-phenylamino-1,2-dihydro-isoquinoline-4-carboxylic acid ((S)-1-phenyl-propyl)-amide] | 
3 | 180 nM | Cc1c(C(=O)N[C@H](c2cccc(F)c2)C2CC2)c2cccc(F)c2c(=O)n1Cc1cc(F)ccc1F [Example 2d, 2-(2,5-Difluoro-benzyl)-8-fluoro-3-methyl-1-oxo-1,2-dihydro-isoquinoline-4-carboxylic acid [(S)-cyclopropyl-(3-fluoro-phenyl)-methyl]-amide] | 
4 | 350 nM | Cc1c(C(=O)N[C@H](c2cccc(F)c2)C2CC2)c2cccc(F)c2c(=O)n1Cc1cccnc1 [Example 2b, 8-Fluoro-3-methyl-1-oxo-2-pyridin-3-ylmethyl-1,2-dihydro-isoquinoline-4-carboxylic acid [(S)-cyclopropyl-(3-fluoro-phenyl)-methyl]-amide] | 
5 | 12 nM | Cc1c(C(=O)N[C@H](c2cccc(F)c2)C2CCC2)c2cccc(F)c2c(=O)n1Cc1cocn1 [Example 2t, 8-Fluoro-3-methyl-2-oxazol-4-ylmethyl-1-oxo-1,2-dihydro-isoquinoline-4-carboxylic acid [(S)-cyclobutyl-(3-fluoro-phenyl)-methyl]-amide] | 
6 |  | CC(=O)N(C)C1(c2ccccc2)CCN(CCC[C@]2(c3ccc(Cl)c(Cl)c3)CCCN(C(=O)c3ccccc3)C2)CC1 [Osanetant, osanetant] | effect versus placebo in clinical trials, in particular on positive symptoms of psychosis (schizophrenics; Am. J. Psychiatry, 161, 2004, 975-984): superior to placebo; bioavailability [1]: poor; blood-brain barrier penetration [1]: poor; clearance [1]: relatively high; solubility [2]: poor
7 | 28 nM | Cc1cc(Cn2c(C)c(C(=O)N[C@H](c3cccc(F)c3)C3CCC3)c3cccc(F)c3c2=O)[nH]n1 [Example 2p, 8-Fluoro-3-methyl-2-(5-methyl-2H-pyrazol-3-ylmethyl)-1-oxo-1,2-dihydro-isoquinoline-4-carboxylic acid [(S)-cyclobutyl-(3-fluoro-phenyl)-methyl]-amide] | 
8 | 4 nM | Cc1c(C(=O)N[C@H](c2ccc(F)c(F)c2)C2CCC2)c2cccc(F)c2c(=O)n1Cc1ncco1 [Example 4b, 8-Fluoro-3-methyl-2-oxazol-2-ylmethyl-1-oxo-1,2-dihydro-isoquinoline-4-carboxylic acid [(S)-cyclobutyl-(3,4-difluoro-phenyl)-methyl]-amide] | 
9 | 7.8 nM | Cc1c(C(=O)N[C@H](c2cccc(F)c2)C2CC2)c2cccc(F)c2c(=O)n1Cc1ccsc1 [Example 2g, 8-Fluoro-3-methyl-1-oxo-2-thiophen-3-ylmethyl-1,2-dihydro-isoquinoline-4-carboxylic acid [(S)-cyclopropyl-(3-fluoro-phenyl)-methyl]-amide] | 
10 | 43 nM | CCn1ccnc1Cn1c(C)c(C(=O)N[C@H](c2cccc(F)c2)C2CCC2)c2cccc(F)c2c1=O [Example 2ah, 2-(1-Ethyl-1H-imidazol-2-ylmethyl)-8-fluoro-3-methyl-1-oxo-1,2-dihydro-isoquinoline-4-carboxylic acid [(S)-cyclobutyl-(3-fluoro-phenyl)-methyl]-amide] | 
11 | 6.6 nM | Cc1nonc1Cn1c(C)c(C(=O)N[C@H](c2cccc(F)c2)C2CCC2)c2cccc(F)c2c1=O [Example 2v, 8-Fluoro-3-methyl-2-(4-methyl-furazan-3-ylmethyl)-1-oxo-1,2-dihydro-isoquinoline-4-carboxylic acid [(S)-cyclobutyl-(3-fluoro-phenyl)-methyl]-amide] | 
12 | 28 nM | Cc1c(C(=O)N[C@H](c2cccc(F)c2)C2CC2)c2cccc(F)c2c(=O)n1Cc1ccoc1 [Example 2a, 8-Fluoro-2-furan-3-ylmethyl-3-methyl-1-oxo-1,2-dihydro-isoquinoline-4-carboxylic acid [(S)-cyclopropyl-(3-fluoro-phenyl)-methyl]-amide] | 
13 |  | CC[C@H](NC(=O)c1c(O)c(-c2ccccc2)nc2ccccc12)c1ccccc1 [talnetant] | effect on cognitive behaviour of schizophrenics in clinical trials (schizophrenics; Curr. Opion. Invest. Drug, 6, 717-721, 2005): ameliorate; bioavailability [1]: poor; blood-brain barrier penetration [1]: poor; clearance [1]: relatively high; solubility [2]: poor
14 | 33 nM | Cc1cc(Cn2c(C)c(C(=O)N[C@H](c3cccc(F)c3)C3CCC3)c3cccc(F)c3c2=O)no1 [Example 2m, 8-Fluoro-3-methyl-2-(5-methyl-isoxazol-3-ylmethyl)-1-oxo-1,2-dihydro-isoquinoline-4-carboxylic acid [(S)-cyclobutyl-(3-fluoro-phenyl)-methyl]-amide] | 
15 | 120 nM | Cc1nnc(Cn2c(C)c(C(=O)N[C@H](c3cccc(F)c3)C3CCC3)c3cccc(F)c3c2=O)[nH]1 [Example 2o, 8-Fluoro-3-methyl-2-(5-methyl-4H-[1,2,4]triazol-3-ylmethyl)-1-oxo-1,2-dihydro-isoquinoline-4-carboxylic acid [(S)-cyclobutyl-(3-fluoro-phenyl)-methyl]-amide] | 
